{
  "source": "patent EP2322514A1",
  "about": "“Homoglutamic acid and glutamic acid derivatives” (Bayer Schering Pharma Aktiengesellschaft, priority 2009, dated 2011)",
  "tested_on": "NSCLC tumor cells (NCl-H460)",
  "assay": "cell competition experiment: uptake of 3H-glutamic acid into tumor cells",
  "format": "cell-based",
  "settings": "NCI-H460 cells, 10 min incubation with 1 µci 3H-glutamic acid in PBS-buffer, test compound 1 mM (excess)",
  "experimental": "Figure 1: Examination of biological activity of (2S)-2-Amino-7-fluoro-4-phosphonoheptanoic acid in a cell competition experiment. (NCI-H460 cells, 10 min incubation with 1 µci 3H-glutamic acid in PBS-buffer, concentration of (2S)-2-Amino-7-fluoro-4-phosphonoheptanoic acid 1 mM).\nThe ability of compounds from the present invention to compete with uptake of glutamic acid into tumor cells was examined. Therefore, NSCLC tumor cells (NCl-H460) were co-incubated with 3H-labeled glutamic acid and (2S)-2-Amino-7-fluoro-4-phosphonoheptanoic acid. This compound was used in excess (1 mM) to the tracer 3H-glutamic acid.",
  "data": [
    {"smiles": "N[C@@H](CC(CCCF)P(=O)(O)O)C(=O)O", "note": "(stereo partly drawn) [(2S)-2-Amino-7-fluoro-4-phosphonoheptanoic acid]", "values": [
      {"measurement": "uptake of 3H-glutamic acid", "result": "could be decreased"}
    ]}
  ]
}
